Test results taken from patent US9481673B2, “6-alkynyl-pyridine derivatives” (Boehringer Ingelheim International GmbH, priority 2014, dated 2016).
pIC50: −log10 of the molar value. Values after ≈ are worked out from the molar mass of the structure shown.

Experiments:
[1] = target: P450 2C19 (Homo sapiens (Human), UniProt P33261); experiment: Cytochrome P450 isoenzyme inhibition assay, hydroxylation of Mephenytoin; format: in vitro ADME
[2] = target: P450 2C8 (Homo sapiens (Human), UniProt P10632); experiment: Cytochrome P450 isoenzyme inhibition assay, deethylation of Amodiaquine; format: in vitro ADME
[3] = target: P450 2C9 (Homo sapiens (Human), UniProt P11712); experiment: Cytochrome P450 isoenzyme inhibition assay, hydroxylation of Diclofenac; format: in vitro ADME
[4] = target: P450 2D6 (Homo sapiens (Human), UniProt P10635); experiment: Cytochrome P450 isoenzyme inhibition assay, demethylation of Dextromethorphan; format: in vitro ADME
[5] = target: P450 3A4 (Homo sapiens (Human), UniProt P08684); experiment: Cytochrome P450 isoenzyme inhibition assay, hydroxylation of Midazolam; format: in vitro ADME
[6] = Solubility measurement (DMSO solution precipitation method); format: physicochemical; details: aqueous buffer, kinetic from dmso stock; for solubility at 24 h: McIlvaine buffer, measured examples from WO 2013/127729 (Table 1), pH 6.8; for solubility kinetic at 24 h: (S)-isomers, McIlvaine buffer pH 6.8, 24 h shaking at ambient temperature, read-out: Sol pH 6.8
[7] = target: cIAP1 BIR3 (Homo sapiens (Human), UniProt Q13490); experiment: cIAP1 BIR3 binding assay (DELFIA), BIR3-SMAC peptide interaction; details: (S)-isomers; BIR3 domain 10 nM, SMAC peptide 10 nM; read-out: cIAP1 BIR-3 IC50
[8] = measured examples from WO 2013/127729 (Table 1)
[9] = (S)-isomers, human liver microsomes, 37° C.

SMILES	pIC50 [1, 8]	pIC50 [2, 8]	pIC50 [3, 8]	pIC50 [4, 8]	pIC50 [5, 8]	solubility at 24 h [6]	pIC50 [7]	pIC50 [1, 9]	pIC50 [2, 9]	pIC50 [3, 9]	pIC50 [5, 9]	solubility kinetic at 24 h [6]	pIC50 [4, 9]
CNC(C)C(=O)Nc1ccc(-c2c(-c3ccncc3)nc3cc(C)ccn23)c(C#Cc2ccccc2)n1 (stereo not shown) [Ex 185, reference compound]	4.80	5.77	5.32	5.57	5.52	60 µg/mL (≈ 123 µM)	–	–	–	–	–	–	–
CNC(C)C(=O)Nc1ccc(-c2c(-c3ccncc3)nc3cc(C)ccn23)c(C#Cc2ccc3c(ccc(=O)n3C)c2)n1 (stereo not shown) [Ex 81, reference compound]	5.55	5.92	6.05	5.47	5.40	8 µg/mL (≈ 14.1 µM)	–	–	–	–	–	–	–
CNC(C)C(=O)Nc1ccc(-c2c(-c3ccncc3)nc3cc(C)ccn23)c(C#Cc2ccc3c(c2)OCC(=O)N3C)n1 (stereo not shown) [Ex 94, reference compound]	5.54	5.31	6.15	5.48	< 4.30	–	–	–	–	–	–	–	–
CNC(C)C(=O)Nc1ccc(-c2c(-c3ccncc3)nc3cc(C)ccn23)c(C#Cc2ccc3nc(C)ccc3c2)n1 (stereo not shown) [Ex 64, reference compound]	5.37	6.30	6.40	5.28	5.68	–	–	–	–	–	–	–	–
CN[C@@H](C)C(=O)Nc1ccc(-c2c(-c3cnc(C)nc3)nc3cc(C)ccn23)c(C#Cc2ccc3c(C)nccc3c2)n1 [(S)-7, (2S)-N-{5-[7-methyl-2-(2-methylpyrimidin-5-yl)imidazo[1,2-a]-pyridin-3-yl]-6-[2-(1-methylisoquinolin-6-yl)ethynyl]pyridin-2-yl}-2-(methylamino)-propanamide]	–	–	–	–	–	–	9.00	< 4.30	< 4.30	< 4.30	< 4.30	< 1 µg/mL	–
CNC(C)C(=O)Nc1ccc(-c2c(-c3ccncc3)nc3cc(C)ccn23)c(C#Cc2ccc(-c3ccon3)cc2)n1 (stereo not shown) [Ex 82, reference compound]	5.32	6.52	6.40	5.66	5.64	–	–	–	–	–	–	–	–
CN[C@@H](C)C(=O)Nc1ccc(-c2c(-c3ccnc(C)c3)nc3cc(C)ccn23)c(C#Cc2ccc3c(C)nccc3c2)n1 [(S)-2, (2S)-N-{5-[7-methyl-2-(2-methylpyridin-4-yl)imidazo[1,2-a]-pyridin-3-yl]-6-[2-(1-methylisoquinolin-6-yl)ethynyl]pyridin-2-yl}-2-(methylamino)-propanamide]	–	–	–	–	–	–	9.00	5.72	6.05	< 4.30	< 4.30	8 µg/mL (≈ 14.1 µM)	< 4.30
